Values quoted from earlier work, collected in US20120207744A1, “REPROGRAMMING COMPOSITIONS AND METHODS OF USING THE SAME” (priority 2009, published 2012).
Structures can show the parent of a compound that is named as a salt.

Assays:
[1] = system: primary human fibroblasts; conditions: Oct-3/4 and Sox-2, without c-Myc or Klf-4
Oct-3/4-GFP = Oct-3/4-GFP as a reporter
ESCs = conditions: cyclic activation of Wnt/β-catenin signaling in ESCs
[2] = system: mouse embryonic fibroblasts; conditions: small-molecule combination BIX-01294 and BayK8644
human ESCs = conditions: both appear equally effective in facilitating clonal growth
ROCK1/ROCK2 = conditions: inhibits by competing with ATP; Ishizaki et al. 2000
ES-cell = conditions: repression of MEK/ERK, in culture
Klf-4 promoter = conditions: transient transfection, 2622-bp mouse Klf-4 promoter

CCCC(CCC)C(=O)O [valproic acid]
reprogramming with only two factors [1]: enables reprogramming of primary human fibroblasts | improvement of reprogramming efficiency (Oct-3/4-GFP): more than 100 fold

enterostatin
effect on KLF4 gene expression (GT1-7 cells; GT1-7 cells treated with the peptide): inhibited KLF4 gene expression

O=C1Nc2cc(Br)ccc2/C1=C1/Nc2ccccc2/C1=N\O [6-bromoindirubin-3′-oxime]
ability of ESCs to reprogram somatic cells after fusion (ESCs): strikingly enhances

COc1cc2nc(N3CCCN(C)CC3)nc(NC3CCN(Cc4ccccc4)CC3)c2cc1OC [BIX-01294]
reprogramming of Oct-3/4/Klf-4 transduced cells [2]: enables reprogramming

COC(=O)C1=C(C)NC(C)=C([N+](=O)[O-])C1c1ccccc1C(F)(F)F (stereo not drawn) [BayK8644]
reprogramming of Oct-3/4/Klf-4 transduced cells [2]: enables reprogramming

Cc1cncc2cccc(S(=O)(=O)N3CCCNC[C@@H]3C)c12.Cl.Cl [H-1152, (S)-(+)-2-methyl-1-[(4-methyl-5-isoquinolinyl)sulfonyl]homopiperazine dihydrochloride]
working concentration for facilitating clonal growth, relative to HA-100 (human ESCs): ten times lower working concentrations than HA-100

C[C@@H](N)[C@H]1CC[C@H](C(=O)Nc2ccncc2)CC1 [Y-27632, (+)-(R)-trans-4-(1-aminoethyl)-N-(4-pyridyl)cyclohexanecarboxamide dihydrochloride]
IC50 (ROCK1/ROCK2): 0.8 µM

COc1cccc(-c2cc(=O)c3ccccc3o2)c1N [PD098059]
effect on differentiation and ES-cell self-renewal (ES-cell): inhibits differentiation and maintains ES-cell self-renewal in culture

N#CC(=C(/N)Sc1ccccc1N)/C(C#N)=C(\N)Sc1ccccc1N [U0126]
effect on enterostatin-induced inhibition of KLF4 gene expression (GT1-7 cells; GT1-7 cells, ERK inhibitor): blocked

B1: Wnt3a: Wnt protein activating Wnt/β-catenin signaling (protein, UniProt P56704 19-352, looked up)
Protein Wnt-3a: SYPIWWSLAVGPQYSSLGSQPILCASIPGLVPKQLRFCRNYVEIMPSVAEGIKIGIQECQHQFRGRRWNCTTVHDSLAIFGPVLDKATRESAFVHAIASAGVAFAVTRSCAEGTAAICGCSSRHQGSPGKGWKWGGCSEDIEFGGMVSREFADARENRPDARSAMNRHNNEAGRQAIASHMHLKCKCHGLSGSCEVKTCWWSQPDFRAIGDFLKDKYDSASEMVVEKHRESRGWVETLRPRYTYFKVPTERDLVYYEASPNFCEPNPETGSFGTRDRTCNVSSHGIDGCDLLCCGRGHNARAERRREKCRCVFHWCCYVSCQECTRVYDVHTCK
ability of ESCs to reprogram somatic cells after fusion (ESCs): strikingly enhances

B2: IFN-gamma: IFN-gamma, cytokine inducing Klf-4 expression via phosphorylated STAT1 (protein, UniProt P01579 24-161, looked up)
Interferon gamma: QDPYVKEAENLKKYFNAGHSDVADNGTLFLGILKNWKEESDRKIMQSQIVSFYFKLFKNFKDDQSIQKSVETIKEDMNVKFFNSNKKKRDDFEKLTNYSVTDLNVQRKAIHELIQVMAELSPAAKTGKRKRSQMLFRG
increase of Klf-4 promoter activity (Klf-4 promoter): 3.5 fold
